In ChEMBL document CHEMBL1201862, “PubChem BioAssay data set” (2004):
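48-hour exposure; five concentrations; linearly interpolated endpoints. Abbreviation: GI50, concentration required for 50% inhibition of growth.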 Active and inactive are the calls of the source. Cut-off read from the data, not from the text of the source: active = GI50 up to about 1.1 µM and inactive = higher.

Assays:
Assay in all cases: growth of human tumour cells (NCI), 48 h
OVCAR-8 = test system: OVCAR-8
786-0 = test system: 786-0
Malme-3M = test system: Malme-3M
SNB-75 = test system: SNB-75
OVCAR-5 = test system: OVCAR-5
SF-268 = test system: SF-268
HL-60 = test system: HL-60
U-251 = test system: U-251
SW-620 = test system: SW-620
HOP-92 = test system: HOP-92
IGROV-1 = test system: IGROV-1
NCI-H522 = test system: NCI-H522
A498 = test system: A498
CCRF-CEM = test system: CCRF-CEM
COLO 205 = test system: COLO 205
SNB-19 = test system: SNB-19
KM12 = test system: KM12
HCC 2998 = test system: HCC 2998

| SMILES | GI50 (OVCAR-8) | GI50 (786-0) | GI50 (Malme-3M) | GI50 (SNB-75) | GI50 (OVCAR-5) | GI50 (SF-268) | GI50 (HL-60) | GI50 (U-251) | GI50 (SW-620) | GI50 (HOP-92) | GI50 (IGROV-1) | GI50 (NCI-H522) | GI50 (A498) | GI50 (CCRF-CEM) | GI50 (COLO 205) | GI50 (SNB-19) | GI50 (KM12) | GI50 (HCC 2998) |
| --- | --- | --- | --- | --- | --- | --- | --- | --- | --- | --- | --- | --- | --- | --- | --- | --- | --- | --- |
| CC1=CC(=O)NP(=O)(Oc2ccc(C)cc2)N1 (stereo not given) | > 100 µM (inactive) | > 100 µM (inactive) | > 100 µM (inactive) | > 100 µM (inactive) | > 100 µM (inactive) | > 100 µM (inactive) | > 100 µM (inactive) | > 100 µM (inactive) | > 100 µM (inactive) | > 100 µM (inactive) | > 100 µM (inactive) | > 100 µM (inactive) | > 100 µM (inactive) | > 100 µM (inactive) | > 100 µM (inactive) | > 100 µM (inactive) | > 100 µM (inactive) | – |
| COc1ccccc1/N=N/c1c(-c2ccccc2)nn(C(=O)CC(=O)Nc2cccc(C)c2)c1-c1ccccc1 | 31.2 µM (inactive) | 43.1 µM (inactive) | 45.6 µM (inactive) | 11.8 µM (inactive) | 36.3 µM (inactive) | 39.4 µM (inactive) | 15.3 µM (inactive) | 20 µM (inactive) | 41.3 µM (inactive) | – | 24.7 µM (inactive) | 16.4 µM (inactive) | 40 µM (inactive) | 15.2 µM (inactive) | 71.3 µM (inactive) | 27.2 µM (inactive) | 26.1 µM (inactive) | 42 µM (inactive) |
| NC(=S)N/N=C/c1cn(CCCl)c2ccccc12 | 57.3 µM (inactive) | 43.7 µM (inactive) | > 100 µM (inactive) | 12.9 µM (inactive) | 3.81 µM (inactive) | > 100 µM (inactive) | 9.57 µM (inactive) | – | 43.6 µM (inactive) | 21.9 µM (inactive) | > 100 µM (inactive) | 11.9 µM (inactive) | – | 20.7 µM (inactive) | 46.5 µM (inactive) | > 100 µM (inactive) | 32.7 µM (inactive) | – |
| O=C1C2=C(CCCCC2)C2CCCCC12O (stereo not given) | > 100 µM (inactive) | > 100 µM (inactive) | > 100 µM (inactive) | > 100 µM (inactive) | – | > 100 µM (inactive) | > 100 µM (inactive) | > 100 µM (inactive) | > 100 µM (inactive) | > 100 µM (inactive) | > 100 µM (inactive) | > 100 µM (inactive) | – | > 100 µM (inactive) | > 100 µM (inactive) | > 100 µM (inactive) | > 100 µM (inactive) | > 100 µM (inactive) |
| CCOC(=O)[C-]([N+]#N)[Si](C)(C)C | > 100 µM (inactive) | > 100 µM (inactive) | > 100 µM (inactive) | > 100 µM (inactive) | > 100 µM (inactive) | 21.6 µM (inactive) | – | 24.2 µM (inactive) | > 100 µM (inactive) | > 100 µM (inactive) | > 100 µM (inactive) | – | > 100 µM (inactive) | – | > 100 µM (inactive) | > 100 µM (inactive) | > 100 µM (inactive) | > 100 µM (inactive) |
| c1ccc(COCC2OC3c4ccccc4COC3C2OCc2ccccc2)cc1 (stereo not given) | > 100 µM (inactive) | > 100 µM (inactive) | > 100 µM (inactive) | 39.6 µM (inactive) | > 100 µM (inactive) | – | – | > 100 µM (inactive) | > 100 µM (inactive) | 19.4 µM (inactive) | > 100 µM (inactive) | – | – | – | > 100 µM (inactive) | > 100 µM (inactive) | > 100 µM (inactive) | > 100 µM (inactive) |
| CC1OC(n2cc(C(F)(F)F)c(=O)[nH]c2=O)C=CC1=O (stereo not given) | 27.2 µM (inactive) | 18.4 µM (inactive) | 18.4 µM (inactive) | 16 µM (inactive) | 19.4 µM (inactive) | 39.2 µM (inactive) | 18.5 µM (inactive) | > 10 µM (inactive) | 17.6 µM (inactive) | 23.9 µM (inactive) | 20 µM (inactive) | 16 µM (inactive) | – | – | 19.3 µM (inactive) | 16.4 µM (inactive) | 18.5 µM (inactive) | 18.3 µM (inactive) |
| COC(=O)C1=C(C(=O)OC)C2C(C)=CC(C)=CN2C(C#N)=C(SC)S1 (stereo not given) | 22.4 µM (inactive) | 30.8 µM (inactive) | 24.7 µM (inactive) | 23.2 µM (inactive) | 35.3 µM (inactive) | 20.6 µM (inactive) | 19.5 µM (inactive) | 31 µM (inactive) | 19.9 µM (inactive) | – | > 10 µM (inactive) | 16.1 µM (inactive) | – | 17.4 µM (inactive) | 17.4 µM (inactive) | 52.4 µM (inactive) | – | 37.2 µM (inactive) |
| CC(=O)Nc1c(Nc2ccccc2)[nH]c(C)nc1=S | > 100 µM (inactive) | > 100 µM (inactive) | > 100 µM (inactive) | 92.9 µM (inactive) | > 100 µM (inactive) | > 100 µM (inactive) | > 100 µM (inactive) | – | > 100 µM (inactive) | > 100 µM (inactive) | > 100 µM (inactive) | > 100 µM (inactive) | – | > 100 µM (inactive) | > 100 µM (inactive) | > 100 µM (inactive) | > 100 µM (inactive) | > 100 µM (inactive) |
| CC[C@H]1[C@@H](C)C=C[C@@H](C)N1S(=O)(=O)c1ccc(C)cc1 | > 100 µM (inactive) | > 100 µM (inactive) | > 100 µM (inactive) | > 100 µM (inactive) | > 100 µM (inactive) | 75 µM (inactive) | 18.5 µM (inactive) | > 100 µM (inactive) | > 100 µM (inactive) | – | – | 30.3 µM (inactive) | > 100 µM (inactive) | > 100 µM (inactive) | > 100 µM (inactive) | 0.693 µM (active) | > 100 µM (inactive) | – |
| CCOC12OC3=C(CC1CC1=C(CCC1=O)O2)C(=O)CC3 (stereo not given) | > 100 µM (inactive) | > 100 µM (inactive) | > 100 µM (inactive) | > 100 µM (inactive) | > 100 µM (inactive) | > 100 µM (inactive) | > 100 µM (inactive) | > 100 µM (inactive) | > 100 µM (inactive) | > 100 µM (inactive) | > 100 µM (inactive) | > 100 µM (inactive) | > 100 µM (inactive) | > 100 µM (inactive) | > 100 µM (inactive) | > 100 µM (inactive) | > 100 µM (inactive) | – |
| O=C1C2C3C=C4c5ccccc5N(c5ccccc5)C4(C2C(=O)N1c1ccc(Cl)cc1)[C@H]1C(=O)N(c2ccc(Cl)cc2)C(=O)[C@@H]31 (stereo not given in full) | > 100 µM (inactive) | > 100 µM (inactive) | > 100 µM (inactive) | > 100 µM (inactive) | > 100 µM (inactive) | – | > 100 µM (inactive) | > 100 µM (inactive) | > 100 µM (inactive) | > 100 µM (inactive) | > 100 µM (inactive) | 82.6 µM (inactive) | > 100 µM (inactive) | > 100 µM (inactive) | 64.7 µM (inactive) | > 100 µM (inactive) | > 100 µM (inactive) | – |
| COc1cc(CCc2cccnc2)cc(OC)c1OC | > 100 µM (inactive) | > 100 µM (inactive) | > 100 µM (inactive) | 51.1 µM (inactive) | 38.5 µM (inactive) | > 100 µM (inactive) | > 100 µM (inactive) | > 100 µM (inactive) | > 100 µM (inactive) | 30.3 µM (inactive) | > 100 µM (inactive) | 65.8 µM (inactive) | > 100 µM (inactive) | > 100 µM (inactive) | > 100 µM (inactive) | > 100 µM (inactive) | > 100 µM (inactive) | – |
